ChEMBL document CHEMBL1152855, “Regioselective synthesis of dispiro[1H-indene-2,3'-pyrrolidine-2',3''-[3H]indole]-1,2''(1''H)-diones of potential anti-tumor properties” (2009)

Assays:
Assay type in all cases: functional
EKVX = experiment: Growth inhibition of human EKVX cells at 10 uM after 48 hrs by sulforhodamine B assay; conditions: values are per cent of control
HOP-62 = experiment: Growth inhibition of human HOP62 cells at 10 uM after 48 hrs by sulforhodamine B assay; conditions: HOP-62, 48 h, values are per cent of control
HOP-92 = experiment: Growth inhibition of human HOP92 cells at 10 uM after 48 hrs by sulforhodamine B assay; conditions: HOP-92, 48 h, read-out: GI
NCI-H226 = experiment: Growth inhibition of human NCI-H226 cells at 10 uM after 48 hrs by sulforhodamine B assay; conditions: NCI-H226, 48 h, values are per cent of control
NCI-H23 = experiment: Growth inhibition of human NCI-H23 cells at 10 uM after 48 hrs by sulforhodamine B assay; conditions: NCI-H23, 48 h, values are per cent of control
NCI-H322M = experiment: Growth inhibition of human NCI-H322M cells at 10 uM after 48 hrs by sulforhodamine B assay; conditions: values are per cent of control
NCI-H460 = experiment: Growth inhibition of human NCI-H460 cells at 10 uM after 48 hrs by sulforhodamine B assay; conditions: NCI-H460, 48 h, values are per cent of control
NCI-H522 = experiment: Growth inhibition of human NCI-H522 cells at 10 uM after 48 hrs by sulforhodamine B assay; conditions: NCI-H522, 48 h, values are per cent of control
HCT-15 = experiment: Growth inhibition of human HCT15 cells at 10 uM after 48 hrs by sulforhodamine B assay; conditions: HCT-15, 48 h, values are per cent of control
HT-29 = experiment: Growth inhibition of human HT-29 cells at 10 uM after 48 hrs by sulforhodamine B assay; conditions: HT-29, 48 h, values are per cent of control
MCF7 = experiment: Growth inhibition of human MCF7 cells at 10 uM after 48 hrs by sulforhodamine B assay; conditions: MCF7, 48 h, values are per cent of control
MDA-MB-231 = experiment: Growth inhibition of human MDA-MB-231 cells at 10 uM after 48 hrs by sulforhodamine B assay; conditions: MDA-MB-231, 48 h, values are per cent of control
NCI/ADR-RES = experiment: Growth inhibition of human NCI/ADR-RES cells at 10 uM after 48 hrs by sulforhodamine B assay; conditions: values are per cent of control
T47D = experiment: Growth inhibition of human T47D cells at 10 uM after 48 hrs by sulforhodamine B assay; conditions: values are per cent of control
OVCAR-4 = experiment: Growth inhibition of human OVCAR4 cells at 10 uM after 48 hrs by sulforhodamine B assay; conditions: OVCAR-4, 48 h, values are per cent of control
OVCAR-5 = experiment: Growth inhibition of human OVCAR5 cells at 10 uM after 48 hrs by sulforhodamine B assay; conditions: OVCAR-5, 48 h, values are per cent of control
SK-OV-3 = experiment: Growth inhibition of human SKOV3 cells at 10 uM after 48 hrs by sulforhodamine B assay; conditions: SK-OV-3, 48 h, values are per cent of control
CCRF-CEM = experiment: Growth inhibition of human CCRF-CEM cells at 10 uM after 48 hrs by sulforhodamine B assay; conditions: values are per cent of control
K562 = experiment: Growth inhibition of human K562 cells at 10 uM after 48 hrs by sulforhodamine B assay; conditions: K562, 48 h, values are per cent of control
MOLT-4 = experiment: Growth inhibition of human MOLT4 cells at 10 uM after 48 hrs by sulforhodamine B assay; conditions: MOLT-4, 48 h, values are per cent of control
SR = experiment: Growth inhibition of human SR cells at 10 uM after 48 hrs by sulforhodamine B assay; conditions: values are per cent of control
786-0 = experiment: Growth inhibition of human 786-0 cells at 10 uM after 48 hrs by sulforhodamine B assay; conditions: 786-0, 48 h, values are per cent of control
CAKI-1 = experiment: Growth inhibition of human Caki1 cells at 10 uM after 48 hrs by sulforhodamine B assay; conditions: CAKI-1, 48 h, values are per cent of control
SN12C = experiment: Growth inhibition of human SN12C cells at 10 uM after 48 hrs by sulforhodamine B assay; conditions: values are per cent of control
UO-31 = experiment: Growth inhibition of human UO31 cells at 10 uM after 48 hrs by sulforhodamine B assay; conditions: UO-31, 48 h, values are per cent of control
LOX IMVI = experiment: Growth inhibition of human LOXIMVI cells at 10 uM after 48 hrs by sulforhodamine B assay; conditions: values are per cent of control
M14 = experiment: Growth inhibition of human M14 cells at 10 uM after 48 hrs by sulforhodamine B assay; conditions: M14, 48 h, values are per cent of control
SK-MEL-2 = experiment: Growth inhibition of human SK-MEL-2 cells at 10 uM after 48 hrs by sulforhodamine B assay; conditions: SK-MEL-2, 48 h, read-out: GI
SK-MEL-28 = experiment: Growth inhibition of human SK-MEL-28 cells at 10 uM after 48 hrs by sulforhodamine B assay; conditions: SK-MEL-28, 48 h, values are per cent of control
SK-MEL-5 = experiment: Growth inhibition of human SK-MEL-5 cells at 10 uM after 48 hrs by sulforhodamine B assay; conditions: SK-MEL-5, 48 h, values are per cent of control
UACC-257 = experiment: Growth inhibition of human UACC257 cells at 10 uM after 48 hrs by sulforhodamine B assay; conditions: UACC-257, 48 h, values are per cent of control
UACC-62 = experiment: Growth inhibition of human UACC62 cells at 10 uM after 48 hrs by sulforhodamine B assay; conditions: UACC-62, 48 h, values are per cent of control
DU-145 = experiment: Growth inhibition of human DU145 cells at 10 uM after 48 hrs by sulforhodamine B assay; conditions: DU-145, 48 h, values are per cent of control
PC-3 = experiment: Growth inhibition of human PC3 cells at 10 uM after 48 hrs by sulforhodamine B assay; conditions: PC-3, 48 h, values are per cent of control
SF-268 = experiment: Growth inhibition of human SF268 cells at 10 uM after 48 hrs by sulforhodamine B assay; conditions: SF-268, 48 h, values are per cent of control
SF-539 = experiment: Growth inhibition of human SF539 cells at 10 uM after 48 hrs by sulforhodamine B assay; conditions: SF-539, 48 h, values are per cent of control
U-251 = experiment: Growth inhibition of human U251 cells at 10 uM after 48 hrs by sulforhodamine B assay; conditions: U-251, 48 h, values are per cent of control
Rattus norvegicus [1] = experiment: Antiinflammatory activity against carrageenan-induced paw edema in Wister albino rat assessed as inhibition of edema at 50 mg/kg, ip administered 1 hr prior to carrageenan challenge measured after 2 hrs relative to control; conditions: route intraperitoneal
Rattus norvegicus [2] = experiment: Antiinflammatory activity against carrageenan-induced paw edema in Wister albino rat assessed as inhibition of edema at 50 mg/kg, ip administered 1 hr prior to carrageenan challenge measured after 3 hrs relative to control; conditions: route intraperitoneal

For [3H]C([3H])([3H])N1C(=O)[C@@]2(c3ccccc31)N(C)C[C@@H](c1cccs1)[C@@]21Cc2ccccc2C1=O, the growth, % of control at 10 µM (EKVX) was 107%, the growth, % of control at 10 µM (HOP-62) was 99.9% and the inhibition of growth at 10 µM (HOP-92) was 69.2%. For the same compound, the growth, % of control at 10 µM (NCI-H226) was 85.7%, the growth, % of control at 10 µM (NCI-H23) was 92% and the growth, % of control at 10 µM (NCI-H322M) was 89.3%. It also gave a growth, % of control at 10 µM (NCI-H460) of 107%, a growth, % of control at 10 µM (NCI-H522) of 94.9% and a growth, % of control at 10 µM (HCT-15) of 108%. It also gave a growth, % of control at 10 µM (HT-29) of 97.5%, a growth, % of control at 10 µM (MCF7) of 103% and a growth, % of control at 10 µM (MDA-MB-231) of 84.3%. The growth, % of control at 10 µM (NCI/ADR-RES) was 98.5%, the growth, % of control at 10 µM (T47D) was 101% and the growth, % of control at 10 µM (OVCAR-4) was 100%. The growth, % of control at 10 µM (OVCAR-5) was 102%, the growth, % of control at 10 µM (SK-OV-3) was 103% and the growth, % of control at 10 µM (CCRF-CEM) was 90.5%. It also gave a growth, % of control at 10 µM (K562) of 72.5%, a growth, % of control at 10 µM (MOLT-4) of 72.2% and a growth, % of control at 10 µM (SR) of 72.5%. The growth, % of control at 10 µM (786-0) was 106%, the growth, % of control at 10 µM (CAKI-1) was 106% and the growth, % of control at 10 µM (SN12C) was 105%. For the same compound, the growth, % of control at 10 µM (UO-31) was 93.5%, the growth, % of control at 10 µM (LOX IMVI) was 85.3% and the growth, % of control at 10 µM (M14) was 104%. For the same compound, the inhibition of growth at 10 µM (SK-MEL-2) was -5.11%, the growth, % of control at 10 µM (SK-MEL-28) was 105% and the growth, % of control at 10 µM (SK-MEL-5) was 112%. It also gave a growth, % of control at 10 µM (UACC-257) of 52.6%, a growth, % of control at 10 µM (UACC-62) of 75.3% and a growth, % of control at 10 µM (DU-145) of 121%. For the same compound, the growth, % of control at 10 µM (PC-3) was 70.3%, the growth, % of control at 10 µM (SF-268) was 101% and the growth, % of control at 10 µM (SF-539) was 112%. For the same compound, the growth, % of control at 10 µM (U-251) was 102%, the inhibition in vivo at 50 mg/kg (Rattus norvegicus [1]) was 10.8% and the inhibition in vivo at 50 mg/kg (Rattus norvegicus [2]) was 9.1%.
